Source: patent publication US11878972B2, “Treatment of neurological disorders” (TORQUR AG, priority 2016, dated 2024)
Entries after “also recorded” stand apart in the source; their conditions may differ. Where two headings read alike, the source gives them in different places.

Experiments:
[1] = tested on: mTOR signaling (S6rP and 4E-BP phosphorylation) in STHdh^Q7/Q7 and STHdh^Q111/Q111 cells; experiment: mTOR signaling in STHdh cells (western blot); assay type: cell-based, mouse; details: 4 hours
Description: 8 inhibit mTOR signaling and induce autophagy in neuronal cell models of HD, treatment of STHdh^Q111/Q111 and STHdh^Q7/Q7 cells was employed. […] Cells were seeded in 10 cm dishes. When cells were about 80% confluent, cells were differentiated and treated with compounds at the same time. […] At the end of incubation time cells were washed with cold PBS buffer and lysed with 200 μl of RIPA buffer supplemented with 4% Complete protease inhibitor (Roche, Switzerland) and 10% PhosStop (Roche, Switzerland). After 30 min of incubation on ice, lysates were vortexed, centrifuged (20 min, 4° C., 16000 rpm) and supernatants were collected. […] 30 μg of protein per sample was analyzed by western blot as described above using the following primary antibodies:

[2] = PK in Sprague Dawley (SD) rats; assay type: in vivo, rat
Description: A single oral administration of cpd. 3, 10 mg/kg was given to female SD rats in a vehicle consisting of DMSO/HPBCD 20% (10/90). Animals were housed in controlled environment and enclosures provided sterile and adequate space with bedding material, food and water, environmental and social enrichment (group housing). Rats were randomized according to their individual body weight, treated and blood, brain and liver were collected and snap frozen at the following time points: 0.5, 2, 4 and 8 hours. Blood (approximately 500-700 μL, collected via cardiac puncture under anesthesia) was immediately transferred into tubes containing lithium-heparin as anticoagulant (Ref: T MLH, Venoject®, Terumo). Tubes were centrifuged at 1,300 g for 10 minutes at +4° C. The resulting plasma was collected and snap frozen in liquid nitrogen and stored at −80° C. until analysis.
Compound concentrations were detected by HPLC-MS/MS. The calibration curves were drawn using standards of known concentrations.

[3] = R6/2 pharmacokinetics (plasma, striatum, cerebellum, cortex); assay type: in vivo, mouse; details: R6/2 mice, single oral dose, one hour; Cpd. 3 75, 50, 25 mg/kg; Cpd. 8 25, 16, 8 mg/kg
Description: In order to test exposure of brain areas, R6/2 mice were treated with a single oral dose of Cpd. 3 (75 mg/kg, 50 mg/kg, 25 mg/kg) or Cpd. 8 (25 mg/kg, 16 mg/kg, 8 mg/kg), 3 animals per group. After one hour plasma was collected and animals were sacrificed. Striatum, cerebellum and cortex was separately snap frozen and analyzed for compound concentration using LC/MS/MS.

[4] = tested on: female NMRI mice, nonepileptic (sham-SE) and epileptic (pilo-SE); experiment: Maximal electroshock seizure threshold test (MEST); assay type: in vivo, mouse
Description: A total of 166 adult female NMRI mice were used obtained from Charles River (Sulzfeld, Germany) at a weight range of 21-25 g (mice). Animals were kept under the following conditions: Housing: Animals were housed in groups of max. 8 mice under controlled conditions (temperature: 22±1° C.; humidity: 50% 60%/), under a 12-h light-dark cycle (lights on at 6:00 a.m.). Feeding: Standard laboratory chow (Altromin 1324 standard diet, Altromin Spezialfutter GmbH, Lage, Germany) was provided ad libitum. Drinking water: Tap water was provided ad libitum.
The MEST determines a population seizure threshold in groups of ˜20 animals and not the threshold for an individual animal. In the present study, the MEST was determined by a staircase procedure as previously described. A stimulator (BMT Medizintechnik, Berlin, Germany) that delivered a constant current (adjustable from 1-200 mA regardless of the impedance of the animal) with sinusoidal pulses (50/sec) for 0.2 sec was used.
Current administration was performed via bilateral transcorneal stimulation (using copper electrodes). Before transcorneal stimulation, a drop of tetracaine solution (2%) was administered to the eyes of the mouse for local anesthesia. Two minutes later, the mouse was restrained by hand to press the copper electrodes on both corneas while the stimulus was applied by stepping on a foot pedal switch connected with the stimulator. Electrodes were covered with soft leather and soaked with saline before each current application. […] The first stimulation was started with a current near to the control threshold.
3 (HCl): 40/100 mg in 10 ml (Suspension; 5% PEG 400 and 2% Tween 80, HPBCD (10%6)) • Cpd. 8 (HCl): 12.5/25 mg in 10 ml (5% PEG 400 and 2% Tween 80, HPBCD (10%))
Statistical analysis were calculated using Student's t-test. All tests were used two-sided; a P<0.05 was considered significant.
We performed no special tests for the determination of adverse effects. Mice were observed about 30 min after injection in their home cages for obvious sedation or reduction of wellbeing. Five minutes before electrical stimulation mice were again observed in their home cages and two minutes before stimulation during handling procedure for treatment with local anaesthesia. Every obvious variation from normal behavior was noted. Only phenobarbital induced noticeable sedation which lasted for more than 60 min. All other test drugs (including vehicle solutions) were tolerated without any obvious adverse effects.

[5] = tested on: STHdh^Q7/Q7 and STHdh^Q111/Q111 cells; experiment: PrestoBlue assay (cell viability/metabolic activity); assay type: cell-based, mouse; details: for metabolic activity (PrestoBlue) at 72 hours: 1230 nM, STHdh^Q111/Q111; for mitochondrial activity: at lower concentration
Description: Cell viability/metabolic activity was detected using the PrestoBlue viability reagent (Invitrogen, USA) according to the manufacturer's instructions. […] 3 (130 nM, 1230 nM), Cpd. […] Non-toxic concentrations determined were transferred to primary neurons used later on in this study. […] At lower concentration of Cpd. 3 and Cpd. […] 8 in STHdh^Q111/Q111. […] Wild type cells are less sensitive to mTOR inhibition and 2.

PK in B57BL/6J mice = details: for half-life: B57BL/6J, in vivo
Description: 8, 50 mg/kg was administered to B57BL/6J mice by gavage. Animals were housed in temperature controlled rooms with free access to food and water. Test items were weighed in a glass vial and dissolved first in DMSO. Tween 80 was added subsequently and finally, the formulation was completed with HPβCD 20%. […] Blood was collected in tubes containing K3-EDTA and stored on ice until centrifugation at 3000×g (10 min. 4° C.). The plasma supernatant was separated and kept at −20° C. until being assayed. Thigh muscle and brain of mice were snap frozen. The brain and muscle samples were homogenized in PBS using the Precellys 24/Dual homogeniser.
Samples were analyzed by LC-MS. Calibration standards were prepared by spiking 20 μl of drug free blank plasma with calibration solution. […] Samples were vigorously shaken and centrifuged for 10 minutes at 6000 g and 20° C. […] An aliquot was transferred to 200 μl sampler vials and subsequently subjected to LC-MS with an injection volume of 1.5 μl.

[6] = female, Sprague-Dawley, plasma, rat, po, 10 mg/kg, single
[7] = 40 mg/kg Cpd. 3 p.o., pretreatment 1 h
[8] = 40 mg/kg Cpd. 3 p.o., pretreatment 3 h
[9] = 100 mg/kg Cpd. 3 p.o., pretreatment 3 h
[10] = 12.5 mg/kg Cpd. 8 p.o., pretreatment 3 h
[11] = 25 mg/kg Cpd. 8 p.o., pretreatment 1 h
[12] = 25 mg/kg Cpd. 8 p.o., pretreatment 3 h
[13] = 25 mg/kg Cpd. 8 p.o., pretreatment 24 h

**Q.** What does the source list for `Nc1cc(C(F)F)c(-c2nc(N3C4CCC3COC4)nc(N3C4CCC3COC4)n2)cn1` [Compound 3, 5-(4-(3-oxa-8-azabicyclo[3.2.1]octan-8-yl)-6-(3-oxa-8-azabicyclo[3.2.1]octan-8-yl)-1,3,5-triazin-2-yl)-4-(difluoromethyl)pyridin-2-amine]?
**A.** mTOR signaling (S6rP phosphorylation and 4E-BP phosphorylation) ([1]; Cpd. 3 200, 400, 1230 nM, Cpd. 8 130, 1230 nM, INK128 100 nM, rapamycin 400 nM): reduced S6rP phosphorylation and 4E-BP phosphorylation; oral bioavailability ([2]; SD rats, single oral 10 mg/kg): good oral bioavailability; penetration into the brain ([2]; SD rats, single oral 10 mg/kg): excellent penetration into the brain; Tmax ([2]; female, Sprague-Dawley, brain, rat, po, 10 mg/kg, single, read-out: Brain Tmax): 0.5 h; AUC [2, 6]: 400 ng·h/mL; Cmax [2, 6]: 1400 ng/mL; Tmax ([2]; female, Sprague-Dawley, plasma, rat, po, 10 mg/kg, single, read-out: Plasma Tmax): 0.5 h; Brain AUC ([2]; rat, po, 10 mg/kg, single): 2500 ng·h/mL; Brain Cmax ([2]; rat, po, 10 mg/kg, single): 1.3 µg/g; Tissue concentrations reached [3]: well in the efficacious range; CC50 Pilo-SE (epileptic) [4, 7]: 17.99 ± 1.39 mA; CC50 Sham-SE (nonepileptic) [4, 7]: 15.14 ± 1.06 mA; Threshold difference between nonepileptic and epileptic [4, 7]: 19%; CC50 Pilo-SE (epileptic) [4, 8]: 18.20 ± 1.35 mA; CC50 Sham-SE (nonepileptic) [4, 8]: 17.49 ± 1.20 mA; Threshold difference between nonepileptic and epileptic [4, 8]: 4%; Threshold difference between vehicle and drug threshold, nonepileptic [4, 8]: 6%; CC50 Pilo-SE (epileptic) [4, 9]: 20.85 ± 1.38 mA; CC50 Sham-SE (nonepileptic) [4, 9]: 16.72 ± 1.72 mA; Threshold difference between nonepileptic and epileptic [4, 9]: 25%; Threshold difference between vehicle and drug threshold, epileptic [4, 9]: 9%; Threshold difference between vehicle and drug threshold, nonepileptic [4, 9]: 2%; anticonvulsant effect (overall) ([4]; parameters tested in this study): slight but inconsistent anticonvulsant effect; metabolic activity (PrestoBlue) at 72 hours [5]: slight inhibition; also recorded: decreased metabolic activity; mitochondrial activity [5]: slight increase in mitochondrial activity; Brain AUC (PK in B57BL/6J mice; mouse, po, 50 mg/kg, single): 30600 ng·h/mL; Brain Cmax (PK in B57BL/6J mice; mouse, po, 50 mg/kg, single): 7.7 µg/g

**Q.** For `C[C@H]1COCCN1c1nc(-c2cnc(N)cc2C(F)F)nc(N2CCOCC2)n1` [Compound 8, (S)-4-(difluoromethyl)-5-(4-(3-methylmorpholino)-6-morpholino-1,3,5-triazin-2-yl)pyridin-2-amine], which “low concentration at which an effect on mTOR signaling could already be observed” value ([1]; STHdh^Q7/Q7 cells) is on record?
**A.** 130 nM

**Q.** And the Tissue concentrations reached [3]?
**A.** sufficient levels were reached at all concentrations

**Q.** And the “Threshold difference between nonepileptic and epileptic” value [4, 10]?
**A.** −1%

**Q.** And the “Threshold difference between vehicle and drug threshold, epileptic” value [4, 10]?
**A.** −1%

**Q.** What about the “Threshold difference between vehicle and drug threshold, nonepileptic” value [4, 10] of the same compound?
**A.** 8%

**Q.** And the “Threshold difference between nonepileptic and epileptic” value [4, 11]?
**A.** −14%

**Q.** And the “Threshold difference between vehicle and drug threshold, epileptic” value [4, 11]?
**A.** −9%

**Q.** What about the “Threshold difference between nonepileptic and epileptic” value [4, 12] of the same compound?
**A.** −22%

**Q.** What about the “Threshold difference between vehicle and drug threshold, epileptic” value [4, 12] of the same compound?
**A.** 6%

**Q.** What about the “Threshold difference between vehicle and drug threshold, nonepileptic” value [4, 12] of the same compound?
**A.** 30%

**Q.** What about the “Threshold difference between nonepileptic and epileptic” value [4, 13] of the same compound?
**A.** 5%

**Q.** What about the “Threshold difference between vehicle and drug threshold, epileptic” value [4, 13] of the same compound?
**A.** −2%

**Q.** What about the “decrease of the CC50” value ([4]; Cpd. 8, epileptic mice, pretreatment time reduced to 1 h) of the same compound?
**A.** 9%

**Q.** What about the “metabolic activity (PrestoBlue) at 72 hours” value [5] of the same compound?
**A.** not significantly

**Q.** What about the mitochondrial activity [5] of the same compound?
**A.** slight increase in mitochondrial activity

**Q.** What about the half-life (PK in B57BL/6J mice; mouse, oral, 50 mg/kg, half-life, as stated in the discussion of the Tsc1 GFAP study) of the same compound?
**A.** 5 h

**Q.** What about the half-life (PK in B57BL/6J mice; mouse, po, 50 mg/kg, half-life in mice (estimated), mice, single oral 50 mg/kg) of the same compound?
**A.** 4.7 to 4.8 h

**Q.** What about the oral bioavailability (PK in B57BL/6J mice; mice, single oral 50 mg/kg) of the same compound?
**A.** good oral bioavailability
